Measured values as given in article PMC8279409, “Novel Mixed NOP/Opioid Receptor Peptide Agonists” (Journal of Medicinal Chemistry, 2021).
Read-outs that look alike come from different tables or passages of the source. Where a SMILES comes first, the peptide text is derived from it. Where no end group is shown, it is not given here. [ ]: non-standard residue; d: D form. Phe(4-NO2) = N[C@@H](Cc1ccc([N+](=O)[O-])cc1)C(=O)O; Dip = N[C@H](C(=O)O)C(c1ccccc1)c1ccccc1; Phe(4-NH2) = Nc1ccc(C[C@H](N)C(=O)O)cc1; Dmt = Cc1cc(O)cc(C)c1C[C@H](N)C(=O)O; hPhe = N[C@@H](CCc1ccccc1)C(=O)O

Key:
human NOP receptor = biological target: T1, human NOP receptor (Homo sapiens, UniProt P41146); assay: Calcium mobilization, NOP receptor; format: cell-based; settings: for Emax: mean ± SEM of at least three experiments in duplicate, SEM; for NOP pEC50 (CL95%): CHO cells coexpressing human NOP and Gαqi5, Fluo-4 AM, 37 °C, mean of at least three experiments in duplicate, CL95% in brackets; for NOP/mu CR (concentration ratio): calcium mobilization, NOP versus mu
T1 construct: expressed in transfected cells; host or cells: CHO cells stably coexpressing the receptor and chimeric Gαqi5
T1 sequence (P41146 whole entry): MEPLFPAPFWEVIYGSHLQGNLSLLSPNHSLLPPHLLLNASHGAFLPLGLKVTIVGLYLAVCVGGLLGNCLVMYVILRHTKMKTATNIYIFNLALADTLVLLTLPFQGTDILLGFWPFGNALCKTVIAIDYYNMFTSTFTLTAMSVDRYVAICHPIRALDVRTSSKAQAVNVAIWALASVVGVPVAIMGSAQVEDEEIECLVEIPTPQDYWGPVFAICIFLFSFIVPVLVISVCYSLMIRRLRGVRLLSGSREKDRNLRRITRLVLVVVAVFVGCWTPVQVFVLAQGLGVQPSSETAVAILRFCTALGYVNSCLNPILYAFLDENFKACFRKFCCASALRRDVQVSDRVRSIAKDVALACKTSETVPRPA
Protocol: CHO cells stably coexpressing the human NOP or kappa or the mu receptor and the C-terminally modified Gαqi5 and CHO cells coexpressing the delta receptor and the GαqG66Di5 protein were generated and cultured as described previously.[45],[46] Cells were maintained in Dulbecco’s modified Eagle’s medium/nutrient mixture F-12 (DEMEM/F-12) supplemented with 10% FBS, 100 U/mL penicillin and 100 μg/mL streptomycin, 100 μg/mL hygromicin B, and 200 μg/mL G418 and cultured at 37 °C in 5% CO2 humidified air. Cells were seeded at a density of 50,000 cells/well into 96-well black, clear-bottom plates. The following day, the cells were incubated with Hanks’ balanced salt solution (HBSS) supplemented with 2.5 mM probenecid, 3 μM of the calcium-sensitive fluorescent dye Fluo-4 AM, and 0.01% pluronic acid for 30 min at 37 °C. After that time, the loading solution was aspirated and 100 μL/well of HBSS supplemented with 20 mM HEPES, 2.5 mM probenecid, and 500 μM brilliant black was added. Serial dilutions were carried out in HBSS/HEPES (20 mM) buffer (containing 0.02% BSA fraction V). After placing both plates (cell culture and master plate) into the fluorometric imaging plate reader FlexStation II (Molecular Devices, Sunnyvale, CA), fluorescence changes were measured. On-line additions were carried out in a volume of 50 μL/well. To facilitate drug diffusion into the wells, the present studies were performed at 37 °C. Maximum change in fluorescence, expressed as percent over the baseline fluorescence, was used to determine agonist response.
The pharmacological terminology adopted in this paper is consistent with IUPHAR recommendations.[59] All data are expressed as the mean ± standard error of the mean (SEM) of at least three experiments performed in duplicate. […] Concentration-response curves to agonists were fitted to the classical four-parameter logistic nonlinear regression model:
Effect = Baseline + (Emax – Baseline)/(1 + 10^(LogEC50 – Log[compound]) × Hillslope). Curve fitting was performed using PRISM 6.0 (GraphPad Software Inc., San Diego).

human mu receptor = biological target: T2, human mu receptor (Homo sapiens, UniProt P35372); assay: Calcium mobilization, mu opioid receptor; format: cell-based; settings: for Emax / activation at 10 µM: percent over the baseline fluorescence, SEM; for Emax: mean ± SEM of at least three experiments in duplicate; for mu pEC50 (CL95%): CHO cells coexpressing human mu receptor and Gαqi5, Fluo-4 AM, 37 °C, mean of at least three experiments in duplicate, CL95% in brackets; for pEC50_mu: molecular formula strings CSV, repeats calcium mobilization values of Tables 1-3; for activation at 10 µM: mean ± SEM
T2 construct: expressed in transfected cells; host or cells: CHO cells stably coexpressing the receptor and chimeric Gαqi5
T2 sequence (P35372 whole entry): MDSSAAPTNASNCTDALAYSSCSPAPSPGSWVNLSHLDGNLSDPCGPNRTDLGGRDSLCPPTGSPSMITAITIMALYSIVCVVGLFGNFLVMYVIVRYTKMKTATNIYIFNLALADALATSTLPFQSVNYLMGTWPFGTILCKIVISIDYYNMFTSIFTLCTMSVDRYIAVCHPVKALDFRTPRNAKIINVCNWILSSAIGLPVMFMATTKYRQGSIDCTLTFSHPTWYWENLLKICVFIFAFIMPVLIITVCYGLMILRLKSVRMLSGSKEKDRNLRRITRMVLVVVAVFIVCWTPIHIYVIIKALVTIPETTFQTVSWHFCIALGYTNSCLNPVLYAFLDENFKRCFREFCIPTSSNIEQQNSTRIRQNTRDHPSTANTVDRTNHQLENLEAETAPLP

[1] = read-out: NOP Emax ± S.E.M., Table 3 series, percent over the baseline fluorescence
[2] = read-out: mu Emax ± S.E.M., Table 3 series
[3] = read-out: NOP Emax ± S.E.M., Table 2 series, percent over the baseline fluorescence
[4] = read-out: mu effect at 10 μM (crc incomplete), Table 2 series

Compound | Emax (human NOP receptor; [3]) [%] | mu pEC50 (CL95%) (human mu receptor; Table 2 series) | pEC50_mu (human mu receptor) | activation at 10 µM (human mu receptor; [4]) [%] | further results
Cc1cc(O)cc(C)c1C[C@H](N)C(=O)NCC(=O)NCC(=O)N[C@@H](Cc1ccccc1)C(=O)N[C@@H](Cc1ccc(N)cc1)C(=O)NCC(=O)N[C@@H](C)C(=O)N[C@@H](CCCNC(=N)N)C(=O)N[C@@H](CCCCN)C(=O)N[C@@H](CO)C(=O)N[C@@H](C)C(=O)N[C@@H](CCCNC(=N)N)C(=O)N[C@@H](CCCCN)C(N)=O [Compound 34, [Dmt^1,(pNH2)Phe^5]N/OFQ(1-13)-NH2] (H-[Dmt]GGF[Phe(4-NH2)]GARKSARK-NH2) | – | – | – | – | Emax (human NOP receptor; [1]): 258 ± 20%; Emax (human mu receptor; [2]): 358 ± 15%
COc1ccc(C[C@H](NC(=O)[C@H](Cc2ccccc2)NC(=O)CNC(=O)CNC(=O)[C@@H](N)Cc2ccc(O)cc2)C(=O)NCC(=O)N[C@@H](C)C(=O)N[C@@H](CCCNC(=N)N)C(=O)N[C@@H](CCCCN)C(=O)N[C@@H](CO)C(=O)N[C@@H](C)C(=O)N[C@@H](CCCNC(=N)N)C(=O)N[C@@H](CCCCN)C(N)=O)cc1 [Compound 20, [Tyr^1,p(OCH3)Phe^5]N/OFQ(1-13)-NH2] (H-YGGFY(Me)GARKSARK-NH2) | 246 ± 18 | crc incomplete; 10 μM: 221 ± 49 | crc incomplete | 221 ± 49 | –
C[C@H](NC(=O)CNC(=O)[C@@H](NC(=O)[C@H](Cc1ccccc1)NC(=O)CNC(=O)CNC(=O)[C@@H](N)Cc1ccc(O)cc1)C(c1ccccc1)c1ccccc1)C(=O)N[C@@H](CCCNC(=N)N)C(=O)N[C@@H](CCCCN)C(=O)N[C@@H](CO)C(=O)N[C@@H](C)C(=O)N[C@@H](CCCNC(=N)N)C(=O)N[C@@H](CCCCN)C(N)=O [Compound 23, [Tyr^1,Dip^5]N/OFQ(1-13)-NH2] (H-YGGF[Dip]GARKSARK-NH2) | 240 ± 26 | 6.78 (6.28–7.27) | – | – | NOP pEC50 (CL95%) (human NOP receptor; Table 2 series): 6.61 (6.13–7.09); NOP/mu CR (concentration ratio) (human NOP receptor; Table 2 series): 1.48; Emax (human mu receptor; read-out: mu Emax ± S.E.M., Table 2 series): 331 ± 32%
C[C@H](NC(=O)CNC(=O)[C@H](Cc1ccc([N+](=O)[O-])cc1)NC(=O)[C@H](Cc1ccccc1)NC(=O)CNC(=O)CNC(=O)[C@@H](N)Cc1ccc(O)cc1)C(=O)N[C@@H](CCCNC(=N)N)C(=O)N[C@@H](CCCCN)C(=O)N[C@@H](CO)C(=O)N[C@@H](C)C(=O)N[C@@H](CCCNC(=N)N)C(=O)N[C@@H](CCCCN)C(N)=O [Compound 22, [Tyr^1,(pNO2)Phe^5]N/OFQ(1-13)-NH2] (H-YGGF[Phe(4-NO2)]GARKSARK-NH2) | 305 ± 22 | crc incomplete; 10 μM: 192 ± 64 | crc incomplete | 192 ± 64 | –
Cc1cc(O)cc(C)c1C[C@H](NC(=O)[C@H](Cc1ccccc1)NC(=O)CNC(=O)CNC(=O)[C@@H](N)Cc1c(C)cc(O)cc1C)C(=O)NCC(=O)N[C@@H](C)C(=O)N[C@@H](CCCNC(=N)N)C(=O)N[C@@H](CCCCN)C(=O)N[C@@H](CO)C(=O)N[C@@H](C)C(=O)N[C@@H](CCCNC(=N)N)C(=O)N[C@@H](CCCCN)C(N)=O [Compound 35, [Dmt^1,5]N/OFQ(1-13)-NH2] (H-[Dmt]GGF[Dmt]GARKSARK-NH2) | – | – | – | – | Emax (human NOP receptor; [1]): 270 ± 25%; Emax (human mu receptor; [2]): 354 ± 16%
C[C@H](NC(=O)CNC(=O)[C@H](CCc1ccccc1)NC(=O)[C@H](Cc1ccccc1)NC(=O)CNC(=O)CNC(=O)[C@@H](N)Cc1ccc(O)cc1)C(=O)N[C@@H](CCCNC(=N)N)C(=O)N[C@@H](CCCCN)C(=O)N[C@@H](CO)C(=O)N[C@@H](C)C(=O)N[C@@H](CCCNC(=N)N)C(=O)N[C@@H](CCCCN)C(N)=O [Compound 18, [Tyr^1,hPhe^5]N/OFQ(1-13)-NH2] (H-YGGF[hPhe]GARKSARK-NH2) | 301 ± 26 | crc incomplete; 10 μM: 228 ± 29 | crc incomplete | 228 ± 29 | NOP pEC50 (CL95%) (human NOP receptor; Table 2 series): 8.70 (8.24–9.16); NOP/mu CR (concentration ratio) (human NOP receptor; Table 2 series): 0.003
YGGFKGARKSARK-NH2 [Compound 8, [Tyr^1,Lys^5]N/OFQ(1-13)-NH2] | – | – | crc incomplete | – | NOP pEC50 (CL95%) (human NOP receptor; Table 1 series, FlexStation II): 7.26 (6.74–7.78); NOP/mu CR (concentration ratio) (human NOP receptor; Table 1 series): 0.05; Emax (human NOP receptor; read-out: NOP Emax ± S.E.M., Table 1 series, maximum change in fluorescence as percent over the baseline fluorescence): 366 ± 6%; mu pEC50 (CL95%) (human mu receptor; Table 1 series): crc incomplete; 10 μM: 113 ± 35; activation at 10 µM (human mu receptor; read-out: mu effect at 10 μM (crc incomplete), Table 1 series): 113 ± 35%
